Broadly, the IC50 is the midpoint of a concentration-inhibition curve. A higher IC50 goes with lower potency.

One assay deals with IDH1 R132H (Homo sapiens, UniProt O75874, R132H). In words: Enzymatic inhibition assay, mutant IDH1 R132H (NADPH depletion coupled to diaphorase/resazurin). Conditions: IDH1 R132H enzyme, IC50 class. Type of assay: biochemical. How it is done:
(§1) Assays were conducted in a 1536-well black solid-bottom plate with a final assay volume of 9 μL.
Specifically, for IDH1 R132H, 3 μL of enzyme (4 mM β-ME, 0.0005 mg/mL IDH1 R132H, 150 mM NaCl, 20 mM Tris pH 7.5, 10 mM MgCl2, 0.05% BSA) were added to the plate, followed by the addition of 23 nL of test compound in DMSO. The plate was lidded and incubated at room temperature for 30 minutes at which time 3 μL of substrate were added (0.016 mM NADPH, 2 mM α-KG, 150 mM NaCl, 20 mM Tris pH 7.5, 10 mM MgCl2, 0.05% BSA). This reaction was incubated at room-temperature for 60 minutes at which time the detection mix was added (0.06 mg/mL diaphorase, 0.036 mM resazurin, 150 mM NaCl, 20 mM Tris pH 7.5, 10 mM MgCl2, 0.05% BSA). […]
(Alamar Blue is a resazurin reagent that responds to reducing activity.)

The target in a further assay is IDH1 R132C (Homo sapiens, UniProt O75874, R132C). In words: Enzymatic inhibition assay, mutant IDH1 R132C (NADPH depletion coupled to diaphorase/resazurin). Type of assay: biochemical. Conditions: IDH1 R132C enzyme, IC50 class. How it is done:
as §1
For IDH1 R132C, 3 μL of enzyme (0.00032 mg/mL IDH1 R132H, 10% glycerol, 50 mM potassium phosphate pH 6.5, 5 mM MgCl2, 0.03% BSA) were added to the plate, followed by the addition of 23 nL of test compound in DMSO. The plate was lidded and incubated at room temperature for 30 minutes at which time 3 μL of substrate were added (0.012 mM NADPH, 0.6 mM α-KG, 10% glycerol, 50 mM potassium phosphate pH 6.5, 5 mM MgCl2, 0.03% BSA). […]

Some results are limits rather than exact numbers.

IDH1 R132H, sequence (O75874 whole entry R132H): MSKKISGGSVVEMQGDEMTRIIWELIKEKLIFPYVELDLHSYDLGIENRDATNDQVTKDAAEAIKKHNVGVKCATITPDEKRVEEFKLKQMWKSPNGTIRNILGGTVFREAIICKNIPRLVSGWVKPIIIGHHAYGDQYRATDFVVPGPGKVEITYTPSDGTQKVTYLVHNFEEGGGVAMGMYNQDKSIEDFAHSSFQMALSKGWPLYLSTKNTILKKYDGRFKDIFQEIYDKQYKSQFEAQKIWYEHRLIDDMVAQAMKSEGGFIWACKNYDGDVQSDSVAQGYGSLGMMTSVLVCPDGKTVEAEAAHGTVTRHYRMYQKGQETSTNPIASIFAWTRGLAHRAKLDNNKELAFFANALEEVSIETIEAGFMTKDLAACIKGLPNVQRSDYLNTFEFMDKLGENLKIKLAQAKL
IDH1 R132C, sequence (O75874 whole entry R132C): as the sequence (O75874 whole entry R132H) above, with H132C counted along it

For the compound `CCOc1ccc(Cl)cc1-n1c(C=C(C)C)c(C(=O)N2CC3CCC(C2)N3)cc(-c2nc(-c3ccc(Cl)cc3)cs2)c1=O` [Compound 113], the IC50 against IDH1 R132H and against IDH1 R132C was < 300 nM each time.
As for `CCc1ccc(OC)cc1-n1c(C=C(C)C)c(C(=O)N2CC3CCC(C2)N3)cc(-c2nc(-c3ccc(Cl)cc3)cs2)c1=O` [Compound 114], the IC50 on IDH1 R132H and at IDH1 R132C was < 300 nM each time.
Turning to `CCOc1ccc(Cl)cc1-n1c(C=C(C)C)c(C(=O)N2CC3CCC(C2)N3)cc(-c2nc(-c3ccc(C(F)(F)F)cc3)cs2)c1=O` [Compound 115], the IC50 against IDH1 R132H and at IDH1 R132C was < 300 nM in each case.
With `CCc1cccc(CC)c1-n1c(C=C(C)C)c(C(=O)N2CC3CCC(C2)N3)cc(-c2nc(-c3ccc(C(F)F)cc3)cs2)c1=O` [Compound 116], the IC50 against IDH1 R132H and against IDH1 R132C was < 300 nM in each case.
Turning to `CCc1ccc(Cl)cc1-n1c(CC(C)C)c(C(=O)N2CCNCC2)cc(-c2nc(-c3ccc(C(F)F)cc3)cs2)c1=O` [Compound 118], the concentration for half-maximal inhibition (IC50) against IDH1 R132H and at IDH1 R132C was 300 to 1000 nM each time.
In the case of `CCc1cccc(CC)c1-n1c(C=C(C)C)c(C(=O)N2C[C@H]3CC[C@@H](C2)N3)cc(-c2nc(-c3ccc(C(F)F)nc3)cs2)c1=O` [Compound 119], the IC50 at IDH1 R132H and against IDH1 R132C was < 300 nM each time.
Turning to `CCc1ccc(Cl)cc1-n1c(C=C(C)C)c(C(=O)N2CCNCC2)cc(-c2nc(-c3ccc(C(F)(F)F)nc3)cs2)c1=O` [Compound 122], the IC50 against IDH1 R132H lay in the range of 300 to 1000 nM; on IDH1 R132C, 1000 to 5000 nM.
On the same counts, the results for `CCc1cccc(CC)c1-n1c(C=C(C)C)c(C(=O)N2CCNC[C@H]2C)cc(-c2nc(-c3ccc(Cl)cc3)cs2)c1=O` [Compound 123] are < 300 nM and < 300 nM.
Consider `CCc1cccc(CC)c1-n1c(C=C(C)C)c(C(=O)N2CCNC[C@@H]2C)cc(-c2nc(-c3ccc(Cl)cc3)cs2)c1=O` [Compound 124], for which the IC50 at IDH1 R132H and against IDH1 R132C was < 300 nM throughout.
For the compound `CCOc1ccc(Cl)cc1-n1c(C=C(C)C)c(C(=O)N2C[C@H]3CC[C@@H](C2)N3)cc(-c2nc(-c3ccc(C(F)F)cc3)cs2)c1=O` [Compound 125], the IC50 at IDH1 R132H and on IDH1 R132C was < 300 nM each time.
As to `CCOc1ccc(Cl)c(-n2c(C=C(C)C)c(C(=O)N3C[C@H]4CC[C@@H](C3)N4)cc(-c3nc(-c4ccc(Cl)cc4)cs3)c2=O)c1` [Compound 126], the IC50 on IDH1 R132H and against IDH1 R132C was < 300 nM each time.
On to `CCOc1ccc(Cl)c(-n2c(C=C(C)C)c(C(=O)N3C[C@H]4CC[C@@H](C3)N4)cc(-c3nc(-c4ccc(C(F)(F)F)cc4)cs3)c2=O)c1` [Compound 127], for which the IC50 against IDH1 R132H and against IDH1 R132C was < 300 nM each time.
For `CCOc1ccc(Cl)cc1-n1c(C=C(C)C)c(C(=O)N2CCNC[C@@H]2C)cc(-c2nc(-c3ccc(C(F)(F)F)cc3)cs2)c1=O` [Compound 128], the IC50 was < 300 nM against IDH1 R132H and 300 to 1000 nM against IDH1 R132C.
On the same counts, the results for `CCOc1ccc(Cl)cc1-n1c(C=C(C)C)c(C(=O)N2CCNC[C@H]2C)cc(-c2nc(-c3ccc(C(F)(F)F)cc3)cs2)c1=O` [Compound 129] are < 300 nM and < 300 nM.
Take `CCOc1ccc(Cl)c(-n2c(C=C(C)C)c(C(=O)N3C[C@H]4CC[C@@H](C3)N4)cc(-c3nc(-c4ccc(C(F)F)cc4)cs3)c2=O)c1` [Compound 130]: the IC50 at IDH1 R132H and against IDH1 R132C was < 300 nM each time.
For `CCc1cccc(CC)c1-n1c(C=C(C)C)c(C(=O)N2CCNC[C@H]2C)cc(-c2nc(-c3ccc(C(F)F)cc3)cs2)c1=O` [Compound 131], the IC50 at IDH1 R132H and against IDH1 R132C was < 300 nM each time.
With `CCc1cccc(CC)c1-n1c(C=C(C)C)c(C(=O)N2CCNC[C@@H]2C)cc(-c2nc(-c3ccc(C(F)F)cc3)cs2)c1=O` [Compound 132], the IC50 against IDH1 R132H and on IDH1 R132C was < 300 nM each time.
As for `CCc1ccc(Cl)cc1-n1c(C=C(C)C)c(C(=O)N2CC3CCC(C2)N3)cc(-c2nc(-c3ccc(Cl)cc3)cs2)c1=O` [Compound 133], the half-inhibitory concentration (IC50) against IDH1 R132H and against IDH1 R132C was < 300 nM each time.
Turning to `CCc1ccc(N(C)C)cc1-n1c(C=C(C)C)c(C(=O)N2CC3CCC(C2)N3)cc(-c2nc(-c3ccc(Cl)cc3)cs2)c1=O` [Compound 134], the IC50 against IDH1 R132H and against IDH1 R132C was < 300 nM in each case.
With `CCOc1ccc(C#N)cc1-n1c(C=C(C)C)c(C(=O)N2CC3CCC(C2)N3)cc(-c2nc(-c3ccc(Cl)cc3)cs2)c1=O` [Compound 135], the IC50 against IDH1 R132H and against IDH1 R132C was < 300 nM in each case.
With `CCOc1ccc(C#N)cc1-n1c(C=C(C)C)c(C(=O)N2CCNCC2)cc(-c2nc(-c3ccc(Cl)cc3)cs2)c1=O` [Compound 136], the IC50 against IDH1 R132H and on IDH1 R132C was < 300 nM throughout.
On to `CCOc1ccc(Cl)c(-n2c(C=C(C)C)c(C(=O)N3CCNCC3)cc(-c3nc(-c4ccc(OC)nc4)cs3)c2=O)c1` [Compound 137], for which the half-inhibitory concentration (IC50) against IDH1 R132H and on IDH1 R132C was < 300 nM throughout.
For the compound `CCOc1ccc(Cl)c(-n2c(C=C(C)C)c(C(=O)N3CC4CCC(C3)N4)cc(-c3nc(-c4ccc(OC)nc4)cs3)c2=O)c1` [Compound 138], the 50% inhibitory concentration (IC50) against IDH1 R132H and against IDH1 R132C was < 300 nM throughout.
For the compound `CCOc1ccc(N(CC)CC)cc1-n1c(C=C(C)C)c(C(=O)N2CCNCC2)cc(-c2nc(-c3ccc(Cl)cc3)cs2)c1=O` [Compound 145], the IC50 at IDH1 R132H and at IDH1 R132C was < 300 nM each time.
As for `CCOc1ccc(N(CC)CC)cc1-n1c(C=C(C)C)c(C(=O)N2C[C@H]3CC[C@@H](C2)N3)cc(-c2nc(-c3ccc(Cl)cc3)cs2)c1=O` [Compound 146], the IC50 at IDH1 R132H is < 300 nM; on IDH1 R132C, 300 to 1000 nM.
On the same counts, the results for `CC(C)=Cc1c(C(=O)N2CCNCC2)cc(-c2nc(-c3ccc(Cl)cc3)cs2)c(=O)n1-c1cc(N(C)C)ccc1Cl` [Compound 147] are < 300 nM and < 300 nM.
With `CNc1ccc(Cl)c(-n2c(C=C(C)C)c(C(=O)N3CCNCC3)cc(-c3nc(-c4ccc(Cl)cc4)cs3)c2=O)c1` [Compound 148], the IC50 on IDH1 R132H and against IDH1 R132C was < 300 nM each time.
With `CNc1ccc(Cl)c(-n2c(C=C(C)C)c(C(=O)N3C[C@H]4CC[C@@H](C3)N4)cc(-c3nc(-c4ccc(Cl)cc4)cs3)c2=O)c1` [Compound 149], the concentration for half-maximal inhibition (IC50) against IDH1 R132H and on IDH1 R132C was < 300 nM in each case.
For `CC(C)=Cc1c(C(=O)N2C[C@H]3CC[C@@H](C2)N3)cc(-c2nc(-c3ccc(Cl)cc3)cs2)c(=O)n1-c1cc(N(C)C)ccc1Cl` [Compound 150], the half-inhibitory concentration (IC50) against IDH1 R132H was 300 to 1000 nM; at IDH1 R132C it was < 300 nM.
